{
  "source": "patent US20040180082A1",
  "about": "“Submicron-liposome containing triterpenoid and a method for preparing the same” (AMOREPACIFIC CORPORATION, priority 2002, published 2004)",
  "experiment": "Wide angle X-ray diffraction of frozen-dried liposome",
  "type": "physicochemical",
  "settings": "2θ value at maximum diffraction no more increasing; FIGS. 2 and 3",
  "description": "The structures and the crystallinities (crystalline property) of the liposome were analyzed with powder XRD equipped with wide-angle diffractometer (Rigaku/USA, D/max-RB) using Cu-Kα (λ=1.54 Å) ray. The oleanolic acid (OA) and liposome prepared in Examples 1, 3, 4, 5 and 6 and frozen-dried were analyzed by X-ray diffraction in wide-angle (θ=2-50°), and the structures of hydrocarbon chains and the molecular distances of oleanolic acid (OA) crystals were determined by the result of the X-ray diffraction. […] Diffractions in a wide range of near 20° were observed because lipids formed smectic (lamellar) liquid-crystal phase, which correspond to the distances between lipid molecules.",
  "data": [
    {"molecule": "CC1(C)CC[C@]2(C(=O)O)CC[C@]3(C)C(=CC[C@@H]4[C@@]5(C)CC[C@H](O)C(C)(C)[C@@H]5CC[C@]43C)[C@@H]2C1", "note": "[OA, oleanolic acid]", "values": [
      {"measurement": "content of OA at which OA is saturated in the bi-layer of the liposome", "result": 25.4, "unit": "mole %"}
    ]}
  ]
}
